Values quoted from earlier work as cited in patent publication US20230138262A1, “FAST-DISINTEGRATING SOLID HERBICIDE COMPOSITION AND THE USE THEREOF” (Rotam Agrochem International Company Limited, priority 2021, published 2023).

Key:
corn = conditions: in vivo

SMILES: Cc1c(C(=O)c2cnn(C)c2O)ccc(S(C)(=O)=O)c1C1=NOCC1 [Topramezone]
- Time to appearance of albino toxication symptoms in overground part of weeds after application (sensitive weeds; after application): 2 to 5 days
- Time from application to death of weeds (sensitive weeds; depending on weather and environment): 10 to 15 days
- Safety to corn (corn): safe to corn
